Assay results published in patent US20040110228A1, “Combinatorial organic synthesis of unique biologically active compounds” (priority 2002, published 2004).
Where a SMILES comes first, the peptide text is derived from it. Where no end group is shown, it is not given here. [ ]: non-standard residue; d: D form. ξ: configuration not given here. ξW = NC(Cc1c[nH]c2ccccc12)C(=O)O; dTic = O=C(O)[C@H]1Cc2ccccc2CN1; Tic = O=C(O)[CH]1Cc2ccccc2CN1; ξF = NC(Cc1ccccc1)C(=O)O

Legend:
[1] = tested on: Bare Lymphocyte Syndrome (BLS) cell line; format: cell-based
Method: Toxicity of peptides KWWCRW and WKHYNY was determined by testing the inhibition of a eukaryotic cell line using a vital stain. The peptides were determined to not be cytotoxic in a non-adherent eukaryotic cell line, Bare Lymphocyte Syndrome (BLS), at concentrations below 250 mg/ml. (Allicotti et al, Manuscript in Preparation). The MTT cytotoxicity assay was used to measure cytotoxicity of the class B synergimycin compounds (Mosmann, Immunol. Methods 65:55-63 (1983)). In this assay, 3-(4,5-dimethylthiazol-2-yl)-2,5-diphenyl tetrazolium bromide (MTT) is converted by live cells into the purple compound formazan. The amount of formazan produced is measured at OD570. The absorbance of the sample wells is compared to the absorbance of the control wells. The readings are used to calculate an IC50 for each peptide. This value represents the concentration of each peptide that reduces the growth of the BLS cells to 50% of the maximum growth measured in the controls.

[2] = tested on: Holliday junction (HJ) intermediate; experiment: in vitro Holliday junction trapping assay (recombination of radiolabeled and unlabeled DNA substrates); format: biochemical; details: 0.01 mg/ml concentrations of peptides; FIG. 56
Method: The eight macrocyclic compounds shown in FIGS. 55 were tested for their ability to bind to the HJ in an in vitro assay. The assay employs a recombination reaction between one radiolabeled double-stranded DNA substrate and an unlabeled partner DNA substrate. Successful recombination gives recombination products and very small amounts of HJ intermediate. A previously identified linear peptide dimer of […] was used as a positive control because it was known to accumulate HJs, as described in […] et al., 2000, supra). During the recombination reaction, two initial DNA cleavage and ligation reactions must take place to form the junction, and two subsequent DNA cleavage and ligation reactions resolve the HJs into double stranded recombination products.

Int protein [3] = biological target: T1, Int protein (Escherichia phage lambda, UniProt P03700); experiment: in vitro recombination reaction catalysed by the Int protein (attL/attR substrates, gel); format: biochemical
T1 sequence (P0A6Y1 whole entry): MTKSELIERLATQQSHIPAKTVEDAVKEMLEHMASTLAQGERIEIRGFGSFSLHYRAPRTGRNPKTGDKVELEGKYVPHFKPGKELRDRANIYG
T1 sequence (P03699 whole entry, further chain): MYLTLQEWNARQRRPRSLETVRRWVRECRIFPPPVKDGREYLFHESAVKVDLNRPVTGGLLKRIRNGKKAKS
T1 sequence (P0A6X7 whole entry, further chain): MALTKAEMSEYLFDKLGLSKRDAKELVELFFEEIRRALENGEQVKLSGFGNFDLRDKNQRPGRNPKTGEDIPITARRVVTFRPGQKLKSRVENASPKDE
T1 sequence (P03700 whole entry): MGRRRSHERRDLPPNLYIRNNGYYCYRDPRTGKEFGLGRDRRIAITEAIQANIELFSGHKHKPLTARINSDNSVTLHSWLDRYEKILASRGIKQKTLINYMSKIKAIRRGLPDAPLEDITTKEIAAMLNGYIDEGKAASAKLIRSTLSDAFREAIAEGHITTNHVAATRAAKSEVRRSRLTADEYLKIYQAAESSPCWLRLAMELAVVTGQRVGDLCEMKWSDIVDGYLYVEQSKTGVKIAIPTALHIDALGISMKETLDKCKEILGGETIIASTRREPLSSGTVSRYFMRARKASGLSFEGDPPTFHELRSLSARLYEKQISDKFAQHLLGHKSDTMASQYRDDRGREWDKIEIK

Salmonella typhimurium = experiment: cell growth assay (OD600); format: cell-based; details: Salmonella enterica serovar Typhimurium Ames strain and LT2 strain; peptides in the medium
Int protein [4] = biological target: T1, Int protein; details: Cassell et al. 2000; cited from earlier work
[5] = tested on: bacterial strains, both gram positive and gram negative; experiment: growth inhibition assays in microtiter plates (cell density at 600 nm); format: cell-based; details: 101 μg/ml and 100 μg/ml; FIG. 57
Method: The eight macrocyclic compounds shown in FIGS. 55 were tested for their ability to bind to the HJ and inhibit bacterial growth in an in vivo assay. Growth inhibition assays were performed in microtiter plates, by comparing the growth of bacteria in the presence and absence of compounds. Cell density at 600 nm was determined for a series of bacterial strains, both gram positive and gram negative, in the presence and absence of macrocyclic compounds. […] Measurements were taken using a BioRad microtiter plate reader. […] The diluted cultures were shaken at 37° C. and optical densities were measured at 30-minute intervals in order to follow their growth. […]
In order to test the inhibitory potency of the peptides, cell growth assays were performed. […] The cell growth assays were performed in microtiter plates; measurements are taken using a BioRad microtiter plate reader.
Overnight bacterial cultures were diluted 1:20 into media and each test compound was added in no more than 10% of the volume of the final suspension. […] The diluted cultures were shaken at 37° C. and optical densities were measured at 30 minute intervals to follow their growth. […]
Four linear heptamers prepared according to FIGS. 63 were tested for their bacteria growth inhibition. […] Measurements were taken using a BioRad microtiter plate reader. […]

WKHYNY [WKHYNY]
concentrations at which not cytotoxic [1]: below 250 mg/ml

O=C1NC(Cc2c[nH]c3ccccc23)C(=O)N2Cc3ccccc3CC2C(=O)NC(Cc2ccccc2)C(=O)NC(Cc2c[nH]c3ccccc23)C(=O)N2Cc3ccccc3CC2C(=O)NC1Cc1ccccc1 (stereo not shown) [B] (cyclo(FW[Tic]FW[Tic]); configuration not given here)
accumulation of HJ intermediates / binding to the HJ [2]: particularly active

KWWCRW [KWWCRW, LysTrpTrpCysArgTrp]
concentrations at which not cytotoxic [1]: below 250 mg/ml

O=C1NC(Cc2ccccc2)C(=O)N2Cc3ccccc3CC2C(=O)NC(Cc2ccccc2)C(=O)NC(Cc2ccccc2)C(=O)N2Cc3ccccc3CC2C(=O)NC1Cc1ccccc1 (stereo not shown) [A] (cyclo(FF[Tic]FF[Tic]); configuration not given here)
accumulation of HJ intermediates / binding to the HJ [2]: particularly active

O=C1NC(Cc2ccccc2)C(=O)N2Cc3ccccc3C[C@@H]2C(=O)NC(Cc2ccccc2)C(=O)NC(Cc2ccccc2)C(=O)N2Cc3ccccc3C[C@@H]2C(=O)NC1Cc1ccccc1 (stereo partly shown) [D] (cyclo([dTic][ξF][ξF][dTic][ξF][ξF]))
accumulation of HJ intermediates / binding to the HJ [2]: particularly active

WRWYCR [WRWYCR, TrpArgTrpTyrCysArg]
potency among peptides of a screen for site-specific recombination inhibitors (Int protein [3]): the most potent
inhibition of bacterial cell growth, FIG. 12 (Salmonella typhimurium): inhibition of bacterial cell growth

TrpLys(His or Ala)TyrAsnTyr [WK(HorA)YNY]
potency among Holliday junction-stabilizing peptide families (Int protein [4]): the most potent

O=C1CNC(=O)C(Cc2c[nH]c3ccccc23)NC(=O)C(Cc2ccccc2)NC(=O)CNC(=O)C(Cc2c[nH]c3ccccc23)NC(=O)C(Cc2ccccc2)N1 (stereo not shown) [H] (cyclo(GFWGFW); configuration not given here)
bacterial growth inhibition by macrocyclic compounds [5]: greatest level of activity

O=C1NC(Cc2c[nH]c3ccccc23)C(=O)N2Cc3ccccc3C[C@@H]2C(=O)NC(Cc2ccccc2)C(=O)NC(Cc2c[nH]c3ccccc23)C(=O)N2Cc3ccccc3C[C@@H]2C(=O)NC1Cc1ccccc1 (stereo partly shown) [E] (cyclo([dTic][ξF][ξW][dTic][ξF][ξW]))
accumulation of HJ intermediates / binding to the HJ [2]: particularly active
